In patent publication US20250388623A1, “PEPTIDE INHIBITOR AND USE THEREOF” (CHENGDU BRILLIANT INSPIRATION BIOTHERAPEUTICS CO., LTD, priority 2022, published 2025):
Bridge positions count the residues as written; N and C are the ends. Ends that are not written are not given here. Peptide text beside a SMILES is read from it.

How the values were obtained:
[1] = tested on: TSP-1-dependent TGF-β activation; assay: TSP-1-dependent TGF-β activation in PMA-differentiated THP-1 cells with 293-TGFβ Res reporter cells; assay type: cell-based; conditions: 100 μM polypeptide, 24 h; ratio to negative control group (1.00)
Method: In this Example, the inhibitory effects of the polypeptides on TSP-1-dependent TGF-β activation were detected using a model based on a high TSP-1 expressing cell. In the assay, THP-1 cells (American Typical Culture Collection, ATCC, TIB-20) were induced by phorbol ester (Phorbol 12-myristate 13-acetate, PMA) (Sigma, Catalog No. P1585) and differentiated into macrophage-like cells with distinct macrophage expression profiles.
The experiment was performed as follows: THP-1 cells were inoculated in a 96-well plate, and treated with 300 nM PMA for differentiation and adherence to form macrophage-like cells. 100 μM polypeptide was added (For the negative control group, an equal volume of PBS (the solvent for the polypeptide) was added, while the positive control group received an equal concentration of the polypeptide shown in SEQ ID NO: 50.) The cells were treated for 24 hours, and then a 293 reporter cell strain, 293-TGFβ Res cell strain (novoprotein, Catalog No. XCC03-1), was added for detecting TGF-β activity, and co-cultivated for 24 hours. Bio-Lite Luciferase Assay lysate comprising fluorescent substrate (Vazyme, Catalog No. DD1201-01) was added, and the fluorescent intensity was detected using a multifunctional microplate reader (TECAN, model Infinite 200 Pro). The inhibitory effect of the polypeptide on TGF-β activation was assessed by calculating the ratio of the fluorescence signal from the polypeptide-treated groups to that of the negative control group.

active TGF-β = assay: Active TGF-β level in lung tissue, bleomycin (BLM) mouse lung fibrosis model; assay type: in vivo; conditions: single intratracheal dose 3 mg/kg on Day 7, lung 24 h later, BLM model group = 100.00
Description: This Example was to evaluate the inhibitory effect of polypeptides on active TGF-β level during the progression of fibrotic disease. In this Example, a mouse lung fibrosis model induced by bleomycin (BLM) was used. The BLM animal model offers advantages, including a close mimicry of the pathological features of the primary disease, ease of use, and good reproducibility. It is the most representative model for studying the mechanisms of fibrosis and is recommended for evaluating drug efficacy.
In this Example, 6 to 8-week-old male C57/6J mice weighing 18-20 g were used as subjects for the study. The experimental animals were randomized into groups, 8 animals in each group, and the expressions of pro-fibrotic factors were detected at the endpoint of the experiment (Day 8) in this model. In this example, an aerosol intratracheal metered dosing applicator (Yuyan, model YAN30012) was utilized for intratracheal administration during the modeling and drug delivery processes. The dosing was performed as follows (An Official American Thoracic Society Workshop Report: Use of Animal Models for the Preclinical Assessment of Potential Therapies for Pulmonary Fibrosis, Am J Respir Cell Mol Biol Vol 56, Iss 5, pp 667-679, May 2017): The experimental animals were anesthetized with aerosolized isoflurane (RWD, lot no. 22041701) using a small animal anesthesia machine (RWD, model R500IE). Animals in the appropriate anesthetic state were positioned supine with heads facing up and bodies tilted on an operating platform (tilted at approximately) 60°, secured by their incisors. The practitioner gently lifted the tongue with tissue forceps in the right hand, pushing it outward and upward to open the animal's lower jaw. Holding the laryngoscope (Yuyan, model SR310-RW) in the left hand, the practitioner slid its anterior leaf-shaped blade along the midline of the tongue into the oral cavity until reaching the glottis, gently pressing the body and root of the tongue upward. The needle of the drug applicator was then inserted through the mouth into the glottis alongside the laryngoscope, and 50 μL of liquid was quickly injected. On the day of modeling (Day 1), the experimental animals were randomly assigned to groups and administered a 0.7 USP/kg dose of bleomycin solution (HanHui Pharmaceutical, Batch No. 20080511) via the tracheal route to induce the model. On Day 7, each peptide-treated group received a single intratracheal dose of 50 μL peptide drug (at a dosage of 3 mg/kg), while the model group was given an equal volume of solvent (saline, Kelong, Batch No. L221062501) as a control. Twenty-four hours after drug administration, the animals were dissected to collect lung tissue, which was ground in liquid nitrogen to extract total protein from the lung tissue. The active TGF-β content in the lung tissue of mice from each group was measured using the TGF-β ELISA kit (BOSTER, catalog number EK0515). The ratio of active TGF-β content between the peptide-treated group and the model group was calculated to evaluate the effect of the peptide on active TGF-β level.

P-Smad2/3 = P-Smad2/3 content in lung tissue, BLM mouse fibrosis model; assay type: in vivo; conditions: single intratracheal dose 3 mg/kg on Day 7, lung 24 h later, BLM model group = 100.00
Description: This example aimed to evaluate the inhibitory effect of polypeptides on the TGF-β downstream signaling pathway during fibrosis progression. TGF-β intracellular signaling relies on the phosphorylation events of Smad family proteins. The increase in Smad2/3 phosphorylation levels is an important indicator that signal transduction has occurred in the TGF-β signaling pathway.
In this example, 6- to 8-week-old male C57/6J mice weighing 18-20 g were used as subjects for the study. The experimental animals were randomized into groups, eight animals in each group. In this example, intratracheal administration was performed using an aerosol intratracheal metered dosing applicator during both the modeling and drug delivery processes, as described in Example 4. On the day of modeling (Day 1), the experimental animals were randomly assigned to groups and administered a 0.7 USP/kg dose of bleomycin solution (HanHui Pharmaceutical, Batch No. 20080511) via the tracheal route to induce the model. On Day 7, each peptide-treated group received a single intratracheal dose of peptide drug at a dosage of 3 mg/kg, while the BLM model group was given an equal volume of solvent (saline) as a control. Twenty-four hours after drug administration, the animals were dissected, and the lung tissues were collected and frozen in liquid nitrogen for future use. Total protein from the lung tissue was extracted after grinding the tissue in liquid nitrogen, and the total P-Smad2/3 content in the tissue was measured by using P-Smad2/3 ELISA kit (CST, Catalog No. 12001C). The ratio of the P-Smad2/3 content between the peptide-treated group and the model group was calculated to evaluate the effect of the peptide on TGFβ signaling.

[2] = biological target: T1, binding of TSP-1 protein to CD36, a TSP-1 receptor protein (Homo sapiens, UniProt P07996); assay: ELISA: blocking of CD36 binding to TSP-1 protein; conditions: for inhibition at 100 µM: 3 h, read-out: Blocking rate (Mean, %); for inhibition at 100 µM / Blocking rate (Mean, %): 100 μM polypeptide, 0.25 μg/mL Fc-tagged CD36, blocking of CD36 binding to TSP-1
T1 construct: purchased novoprotein (TSP-1); R&D Systems (Fc-tagged CD36) CU45 (TSP-1); 1955-CD-050 (CD36-Fc)
Method: ELISA assay was performed to detect the ability of the polypeptides to block the binding of TSP-1 protein to CD36, a TSP-1 receptor protein. TSP-1 protein (novoprotein, Catalog No. CU45) was diluted to 2 μg/mL using 100 mM carbonate buffer and added to sample wells (100 μL/well) of a 96-well ELISA plate (Thermo, Catalog No. 437111), and incubated overnight at 4° C.; after washing the plate twice using 1×PBST wash solution, 200 μL of 1.5% BSA (Sigma, Catalog No. B2064) was added to each well, and incubated at 37° C. for 2 h; after washing the plate 3 times using 1×PBST wash solution, the analytes were added (100 μL/well, 3 replicate wells; for the control group, 0.25 μg/mL of Fc-tagged CD36 protein (R&D Systems, Catalog No. 1955-CD-050); and for the polypeptide-treated groups, a mixture containing Fc-tagged CD36 protein and polypeptide at final concentrations of 0.25 μg/mL and 100 μM, respectively), and incubated at 37° C. for 3 h. After washing the plate 5 times using 1×PBST wash solution, a 1:500 dilution solution of FITC-labeled anti-Fc-tagged antibody (Beyotime, Catalog No. A0556) was added, and incubated for 1 h at 37° C.; after washing the plate 5 times using 1×PBST wash solution, a multifunctional ELISA instrument (TECAN, model: Infinite 200 Pro) was used to detect the intensity of FITC fluorescence signal in each sample well. The ability of the polypeptides to block CD36 binding to TSP-1 protein (Table 2-1) was assessed by calculating the ratio of the fluorescence signal from the polypeptide-treated groups to that of the control group, allowing for the determination of the blocking rate of the polypeptides in inhibiting CD36 binding to TSP-1 protein, i.e., (fluorescence signal of the control group-fluorescence signal of the polypeptide-treated group)/fluorescence signal of the control group×100%. Based on the blocking rate results obtained at the single concentration and on the polypeptide molecule properties, the preferred polypeptide molecules were assayed for concentration dependence (at 0 μM, 0.5 μM, 1 μM, 5 μM, 10 μM, and 100 μM), and IC50 values of the polypeptides for blocking CD36 binding to TSP-1 protein were determined to further assess the abilities of the preferred polypeptide molecules to block the binding of CD36 to TSP-1 (Table 2-2).

T1 sequence (P07996 19-1170): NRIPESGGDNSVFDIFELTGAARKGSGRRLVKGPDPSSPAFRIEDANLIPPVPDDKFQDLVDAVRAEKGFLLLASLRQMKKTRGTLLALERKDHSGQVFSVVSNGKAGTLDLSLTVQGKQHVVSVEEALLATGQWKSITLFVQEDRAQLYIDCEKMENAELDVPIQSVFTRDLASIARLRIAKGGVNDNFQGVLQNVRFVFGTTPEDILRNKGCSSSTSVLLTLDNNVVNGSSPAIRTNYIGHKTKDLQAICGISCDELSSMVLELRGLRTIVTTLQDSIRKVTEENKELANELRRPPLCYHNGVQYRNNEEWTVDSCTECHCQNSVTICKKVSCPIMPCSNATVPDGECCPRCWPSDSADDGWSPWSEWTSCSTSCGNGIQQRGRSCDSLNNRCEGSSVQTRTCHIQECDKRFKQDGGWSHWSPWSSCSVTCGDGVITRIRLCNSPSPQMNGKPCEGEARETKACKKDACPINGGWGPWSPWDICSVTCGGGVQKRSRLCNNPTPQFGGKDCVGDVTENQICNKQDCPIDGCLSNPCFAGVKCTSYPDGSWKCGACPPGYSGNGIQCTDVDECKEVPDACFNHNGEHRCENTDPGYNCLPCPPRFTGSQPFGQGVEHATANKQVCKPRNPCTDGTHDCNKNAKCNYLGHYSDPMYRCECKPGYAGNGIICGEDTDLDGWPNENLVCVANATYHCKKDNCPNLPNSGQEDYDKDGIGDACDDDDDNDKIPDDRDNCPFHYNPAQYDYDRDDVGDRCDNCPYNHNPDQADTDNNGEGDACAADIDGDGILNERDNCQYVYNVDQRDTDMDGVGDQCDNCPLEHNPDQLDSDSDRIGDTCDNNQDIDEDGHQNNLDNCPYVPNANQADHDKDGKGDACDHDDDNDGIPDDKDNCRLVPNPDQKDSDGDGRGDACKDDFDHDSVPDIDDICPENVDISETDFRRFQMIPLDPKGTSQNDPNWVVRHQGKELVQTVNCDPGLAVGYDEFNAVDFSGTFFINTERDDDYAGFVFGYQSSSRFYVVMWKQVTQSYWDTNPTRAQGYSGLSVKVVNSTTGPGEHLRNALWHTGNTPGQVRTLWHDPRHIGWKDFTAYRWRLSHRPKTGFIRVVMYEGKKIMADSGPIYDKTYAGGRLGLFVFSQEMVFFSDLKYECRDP

C[C@@H]1NC(=O)[C@H](CC(=O)O)NC(=O)[C@H](CCC(N)=O)NC(=O)[C@H]([C@@H](C)O)NC(=O)[C@H](CC(N)=O)NC(=O)[C@H](CC(=O)O)NC(=O)[C@H](CCC(=O)O)NC1=O [SEQ ID NO: 45, cyclo[Gln-Asp-Ala-Glu-Asp-Asn-Thr]] (cyclo(AEDNTQD))
Mean (relative fluorescence intensity) [1]: 0.52
active TGF-β content in lung tissue, ratio to model group, Mean(%) (active TGF-β; 3 mg/kg): 81.10%
P-Smad2/3 content in lung tissue, ratio to model group, Mean(%) (P-Smad2/3; 3 mg/kg): 82.42%

Ac-TQDAEDNTAS-NH2 [SEQ ID NO: 24, Ac-Thr-Gln-Asp-Ala-Glu-Asp-Asn-Thr-Ala-Ser-NH2]
inhibition at 100 µM [2]: 32.6%
IC50 ([2]; concentrations 0-100 μM): 10.6 µM
Mean (relative fluorescence intensity) [1]: 0.57
active TGF-β content in lung tissue, ratio to model group, Mean(%) (active TGF-β): 76.35%
P-Smad2/3 content in lung tissue, ratio to model group, Mean(%) (P-Smad2/3): 89.89%

Ac-TQDAEDNTVSFLQ-NH2 [SEQ ID NO: 36, Ac-Thr-Gln-Asp-Ala-Glu-Asp-Asn-Thr-Val-Ser-Phe-Leu-Gln-NH2]
inhibition at 100 µM [2]: 23.1%
Mean (relative fluorescence intensity) [1]: 0.83
active TGF-β content in lung tissue, ratio to model group, Mean(%) (active TGF-β): 77.42%
P-Smad2/3 content in lung tissue, ratio to model group, Mean(%) (P-Smad2/3): 79.00%

Ac-TQDPEDN-NH2 [SEQ ID NO: 14, Ac-Thr-Gln-Asp-Pro-Glu-Asp-Asn-NH2]
inhibition at 100 µM [2]: 27.9%
Mean (relative fluorescence intensity) [1]: 0.70
active TGF-β content in lung tissue, ratio to model group, Mean(%) (active TGF-β): 92.49%
P-Smad2/3 content in lung tissue, ratio to model group, Mean(%) (P-Smad2/3): 87.39%

Ac-Thr-Gln-Asp-Ala-Glu-Asp-Leu-NH2 (Ac-TQDAEDL-NH2) [SEQ ID NO: 12]
Blocking rate (Mean, %) [2]: 18.39%
active TGF-β content in lung tissue, ratio to model group, Mean(%) (active TGF-β): 81.77%
P-Smad2/3 content in lung tissue, ratio to model group, Mean(%) (P-Smad2/3): 90.48%

Ac-Thr-Gln-Asp-Pro-Ala-Glu-Asp-NH2 (Ac-TQDPAED-NH2) [SEQ ID NO: 47]
Blocking rate (Mean, %) [2]: 19.10%
active TGF-β content in lung tissue, ratio to model group, Mean(%) (active TGF-β): 83.78%
P-Smad2/3 content in lung tissue, ratio to model group, Mean(%) (P-Smad2/3): 93.25%

Ac-Thr-Glu-Asp-Ala-Glu-Asp-Asn-NH2 (Ac-TEDAEDN-NH2) [SEQ ID NO: 09]
Blocking rate (Mean, %) [2]: 15.87%
active TGF-β content in lung tissue, ratio to model group, Mean(%) (active TGF-β): 72.26%
P-Smad2/3 content in lung tissue, ratio to model group, Mean(%) (P-Smad2/3): 89.41%

Thr-Gln-cyclo[Asp-Ala-Glu-Asp-Asn-Lys] (TQDAEDNK; lactam 3-8) [SEQ ID NO: 42]
Blocking rate (Mean, %) [2]: 25.68%
active TGF-β content in lung tissue, ratio to model group, Mean(%) (active TGF-β): 80.59%
P-Smad2/3 content in lung tissue, ratio to model group, Mean(%) (P-Smad2/3): 85.16%

cyclo[Thr-Gln-Asp-Pro-Glu-Asp-Asn] (TQDPEDN; cyclic peptide; MISC_FEATURE - head-to-tail backbone cyclization) [SEQ ID NO: 41]
Blocking rate (Mean, %) [2]: 28.65%
active TGF-β content in lung tissue, ratio to model group, Mean(%) (active TGF-β): 74.12%
P-Smad2/3 content in lung tissue, ratio to model group, Mean(%) (P-Smad2/3): 81.44%
